Experimental data reported in paper PMC7686273 (Bioorganic & medicinal chemistry letters, 2020).

Columns and labels:
rat mGlu7 = rat mGlu7 (Rattus norvegicus, UniProt P35400); assay: calcium mobilization assay with rat mGlu7/Gα15/HEK cells; assay type: cell-based
clearance in vivo = conditions: plasma
[1] = stability under cell-based assay conditions; assay type: physicochemical; conditions: cell buffer

rat mGlu7, sequence (P35400 35-915): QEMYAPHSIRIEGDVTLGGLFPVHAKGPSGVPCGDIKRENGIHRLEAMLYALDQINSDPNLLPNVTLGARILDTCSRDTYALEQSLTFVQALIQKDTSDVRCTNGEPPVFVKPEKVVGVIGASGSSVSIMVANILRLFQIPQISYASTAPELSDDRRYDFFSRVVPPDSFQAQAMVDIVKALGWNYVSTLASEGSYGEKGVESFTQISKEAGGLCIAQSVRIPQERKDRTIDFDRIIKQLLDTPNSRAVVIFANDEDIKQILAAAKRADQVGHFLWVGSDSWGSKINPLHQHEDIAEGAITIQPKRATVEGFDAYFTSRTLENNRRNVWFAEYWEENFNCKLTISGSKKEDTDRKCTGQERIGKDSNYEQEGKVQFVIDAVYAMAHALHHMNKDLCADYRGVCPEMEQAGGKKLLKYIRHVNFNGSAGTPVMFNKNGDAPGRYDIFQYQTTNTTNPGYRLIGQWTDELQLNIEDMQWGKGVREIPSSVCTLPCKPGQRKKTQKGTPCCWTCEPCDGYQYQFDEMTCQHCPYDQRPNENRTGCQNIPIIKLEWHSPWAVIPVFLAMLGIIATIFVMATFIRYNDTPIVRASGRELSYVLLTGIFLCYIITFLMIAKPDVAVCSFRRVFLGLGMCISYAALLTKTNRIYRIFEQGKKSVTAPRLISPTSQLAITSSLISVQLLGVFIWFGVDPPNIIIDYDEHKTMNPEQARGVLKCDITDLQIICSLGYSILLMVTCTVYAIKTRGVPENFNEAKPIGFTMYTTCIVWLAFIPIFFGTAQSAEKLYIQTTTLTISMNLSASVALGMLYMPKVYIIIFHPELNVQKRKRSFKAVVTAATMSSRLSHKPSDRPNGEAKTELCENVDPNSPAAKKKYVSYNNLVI

| mGlu7 NAM activity in words (rat mGlu7) | SMILES | other results |
| --- | --- | --- |
| lost activity | CCOC(=O)c1cnc2c(OC)cccc2c1N1CCN(c2ccccc2Cl)CC1 [11d] | – |
| lost activity | CCOC(=O)c1cnc2c(OC)cccc2c1N1CCN(c2ccccc2C)CC1 [11e] | – |
| lost activity | CCOC(=O)c1cnc2c(OC)cccc2c1N1CCN(c2ccccc2C#N)CC1 [11f] | – |
| lost activity | CCOC(=O)c1cnc2c(OC)cccc2c1N1CCN(c2ccccc2F)CC1 [11h] | – |
| retained mGlu7 NAM potency | CCOC(=O)c1cnc2c(OC)cccc2c1N1CCN(c2ccc(OC)cc2OC)CC1 [11i] | – |
| retained mGlu7 NAM potency | CCOC(=O)c1cnc2c(OC)cccc2c1N1CCN(c2c(OC)cccc2OC)CC1 [11j] | – |
| modest potency | CCOC(=O)c1cnc2c(OC)cccc2c1N1CCN(c2cccnc2OC)CC1 [11l] | – |
| modest potency | CCOC(=O)c1cnc2c(OC)cccc2c1N1CCN(c2nccnc2OC)CC1 [11m] | – |
| – | CCOC(=O)c1cnccc1N1CCN(c2ccccc2OC)CC1 [13a] | fold loss of mGlu7 NAM potency relative to 8 (rat mGlu7): ~ 6.5 fold |
| – | CCOC(=O)c1cnc2ccsc2c1N1CCN(c2ccccc2OC)CC1 [13b] | fold loss of mGlu7 NAM potency relative to 8 (rat mGlu7): ~ 6.5 fold |
| – | CCOC(=O)c1cnc2sccc2c1N1CCN(c2ccccc2OC)CC1 [13c] | fold loss of mGlu7 NAM potency relative to 8 (rat mGlu7): ~ 6.5 fold |
| inactive | CCOC(=O)c1ccc2c(OC)cccc2c1N1CCN(c2ccccc2OC)CC1 [13d] | – |
| equipotent to 8 | CCOC(=O)c1cnc2c(OC)cc(OC)cc2c1N1CCN(c2ccccc2OC)CC1 [13f] | – |
| – | CCOC(=O)c1cnc2c(OC)cccc2c1N1CCN(c2ccccc2OC)C(C)C1 (stereo not drawn) [14a] | fold loss of mGlu7 NAM potency relative to 8 (rat mGlu7): ~ 2 fold |
| – | CCOC(=O)c1cnc2c(OC)cccc2c1N1CCN(c2ccccc2OC)CC1C (stereo not drawn) [14b] | fold loss of mGlu7 NAM potency relative to 8 (rat mGlu7): ~ 2 fold |
| – | CCOC(=O)c1cnc2c(OC)cccc2c1N(C)CCN(C)c1ccccc1OC [14c] | fold loss of mGlu7 NAM potency relative to 8 (rat mGlu7): ~ 6 fold |
| inactive | CCOC(=O)c1cnc2c(OC)cccc2c1C1CC2CC(C1)N2c1ccccc1OC (stereo not drawn) [14g] | – |
| not productive | CCOC(=O)c1cnc2c(OC)cccc2c1N1CC2(CN(c3ccccc3OC)C2)C1 [14i] | – |
| – | CCOC(=O)c1cnc2c(OC)cccc2c1-c1cnc(-c2ccccc2OC)c(OC)c1 [15h] | clearance (clearance in vivo): 70 mL/min/kg |
| competent surrogate | CCOC(=O)c1cnc2c(OC)cccc2c1-c1ccn(Cc2ccccc2OC)c1 [15j] | – |
| – | CCOC(=O)c1cnc2c(OC)cccc2c1N1CCN(c2ccccc2OC)CC1 [compound 8] | stability of the ester under cell-based assay conditions [1]: stable |
| sub-micromolar | CCOC(=O)c1cnc2c(OC)cc(OC)cc2c1-c1ccc(-c2ccccc2OC)nc1 [compound 18] | – |
| sub-micromolar | CCOC(=O)c1cnc2c(OC)cc(OC)cc2c1-c1ccc(-c2ccccc2OCC)nc1 [compound 19] | – |

| SMILES | mGlu7 NAM activity in words (rat mGlu7) | other results |
| --- | --- | --- |
| CCOC(=O)c1cnc2c(OC)cccc2c1C1C2CC1CN(c1ccccc1OC)C2 (stereo not drawn) [14f] | inactive | – |
